Active and inactive are the calls of the source. No cut-off for these calls is given here.

For assay [1], the target named is Acetylcholinesterase (Electrophorus electricus) (UniProt O42275). The experiment in a line: Mixed type inhibition of electric eel acetylcholinesterase preincubated for 15 mins by Lineweaver-Burk plot analysis.
Assay [2] in a line: Inhibition of amyloid beta (1 to 40) self-mediated aggregation at 10 uM after 72 hrs by thioflavin T based fluorometric assay relative to control.
A short description of assay [3]: Inhibition of amyloid beta (1 to 40) self-mediated aggregation assessed as reduction in beta-sheet structure formation at 20 uM after 3 days by CD spectropolarimetric analysis.
The nature of assay [4]: Inhibition of amyloid beta (1 to 40) self-mediated aggregation assessed as inhibition of extended fibrils formation at 10 uM after 4 days by transmission electron microscopic analysis.
The nature of assay [5]: Inhibition of amyloid beta (1 to 40) self-mediated aggregation assessed as change in alpha-helix structure formation at 20 uM after 3 days by CD spectropolarimetric analysis.
For assay [6], the target named is Acetylcholinesterase (Electrophorus electricus, UniProt O42275).
Description: Inhibition of electric eel acetylcholinesterase using acetylcholine chloride as substrate preincubated for 15 mins before substrate addition by Ellman's method
Assay [7] concerns the target Cholinesterase (Equus caballus, UniProt P81908).
Description: Inhibition of equine serum butyrylcholinesterase using butyrylthiocholine chloride as substrate preincubated for 15 mins before substrate addition by Ellman's method

Sequence of Acetylcholinesterase (O42275 whole entry): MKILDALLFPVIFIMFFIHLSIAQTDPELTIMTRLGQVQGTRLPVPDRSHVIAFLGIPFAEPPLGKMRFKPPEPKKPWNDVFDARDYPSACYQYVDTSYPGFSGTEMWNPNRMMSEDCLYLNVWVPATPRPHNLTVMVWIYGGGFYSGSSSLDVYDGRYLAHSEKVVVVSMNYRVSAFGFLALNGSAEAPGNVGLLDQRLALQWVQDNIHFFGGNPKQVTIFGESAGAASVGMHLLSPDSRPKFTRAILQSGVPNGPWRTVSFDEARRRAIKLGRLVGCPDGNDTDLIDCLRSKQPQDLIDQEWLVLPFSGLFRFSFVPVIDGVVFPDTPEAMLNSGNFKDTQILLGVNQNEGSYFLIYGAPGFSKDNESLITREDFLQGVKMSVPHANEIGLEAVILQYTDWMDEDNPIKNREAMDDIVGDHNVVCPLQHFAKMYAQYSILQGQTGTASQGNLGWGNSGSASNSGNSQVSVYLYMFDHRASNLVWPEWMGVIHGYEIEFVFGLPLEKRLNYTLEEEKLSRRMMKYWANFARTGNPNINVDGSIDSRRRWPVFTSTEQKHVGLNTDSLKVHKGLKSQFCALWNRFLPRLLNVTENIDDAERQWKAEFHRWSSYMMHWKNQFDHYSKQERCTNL
Sequence of Cholinesterase (P81908 whole entry): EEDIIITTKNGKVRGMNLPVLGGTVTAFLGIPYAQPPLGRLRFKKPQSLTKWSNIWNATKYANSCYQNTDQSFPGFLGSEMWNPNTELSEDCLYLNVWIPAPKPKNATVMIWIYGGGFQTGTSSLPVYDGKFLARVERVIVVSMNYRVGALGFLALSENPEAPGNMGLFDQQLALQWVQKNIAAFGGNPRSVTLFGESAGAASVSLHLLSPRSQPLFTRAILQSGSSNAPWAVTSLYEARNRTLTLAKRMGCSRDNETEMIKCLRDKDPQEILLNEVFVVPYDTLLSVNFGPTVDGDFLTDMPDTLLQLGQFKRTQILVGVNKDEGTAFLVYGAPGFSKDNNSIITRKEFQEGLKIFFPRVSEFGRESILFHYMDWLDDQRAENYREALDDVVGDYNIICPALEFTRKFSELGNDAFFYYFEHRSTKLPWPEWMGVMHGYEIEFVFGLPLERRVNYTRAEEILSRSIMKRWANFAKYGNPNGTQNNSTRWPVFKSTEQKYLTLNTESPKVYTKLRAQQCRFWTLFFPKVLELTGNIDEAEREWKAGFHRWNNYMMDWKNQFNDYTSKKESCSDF
Sequence of Acetylcholinesterase (Electrophorus electricus) (O42275 24-633 limits assumed): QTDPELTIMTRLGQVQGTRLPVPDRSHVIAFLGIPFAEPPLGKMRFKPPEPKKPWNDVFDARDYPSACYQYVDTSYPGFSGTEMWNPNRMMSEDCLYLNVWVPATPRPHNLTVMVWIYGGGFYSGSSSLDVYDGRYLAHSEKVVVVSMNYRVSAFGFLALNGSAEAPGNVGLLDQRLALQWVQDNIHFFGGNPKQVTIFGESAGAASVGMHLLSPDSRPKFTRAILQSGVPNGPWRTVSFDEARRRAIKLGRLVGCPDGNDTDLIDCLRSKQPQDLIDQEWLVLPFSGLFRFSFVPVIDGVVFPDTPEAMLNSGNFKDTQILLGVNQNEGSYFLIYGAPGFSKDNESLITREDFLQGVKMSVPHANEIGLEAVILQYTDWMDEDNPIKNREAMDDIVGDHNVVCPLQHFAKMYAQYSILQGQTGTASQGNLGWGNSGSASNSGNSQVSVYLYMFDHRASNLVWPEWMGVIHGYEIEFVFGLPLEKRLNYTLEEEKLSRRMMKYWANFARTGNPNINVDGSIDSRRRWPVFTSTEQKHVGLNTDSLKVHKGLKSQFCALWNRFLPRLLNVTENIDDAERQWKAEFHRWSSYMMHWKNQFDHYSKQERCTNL

For orientation: inhibition means how much of the control response was suppressed. By IC50 is commonly meant the concentration that gives 50% inhibition. Low values mean higher potency, high ones lower potency. Take `O=C(CCN1CCCC1)Nc1ccc(/C=C2\CCn3c2nc2cc(Cl)ccc2c3=O)cc1`: the inhibition result in assay [1], in assay [3] and in assay [4] was “Active” each time. Besides, in assay [2], the inhibition was determined as 62.3%. Also, the inhibition result in assay [5] is “inactive”. Besides, the values for the IC50 in assay [6] and in assay [7] were 41 nM and 3820 nM, respectively.
Consider `O=C(NCCCN1CCCC1)c1ccc(/C=C2\CCCn3c2nc2cc(Cl)ccc2c3=O)cc1`, for which the inhibition in assay [2] worked out at 53.3%. Further, the IC50 in assay [6] was found to be 1210 nM; in assay [7], 500 nM.
`CCN(CC)CCC(=O)Nc1ccc(/C=C2\CCn3c2nc2cc(Cl)ccc2c3=O)cc1` gave an inhibition in assay [2] of 39%. The IC50 amounted to 60 nM in assay [6] and 6440 nM in assay [7].
Compound `O=C(CC[n+]1ccccc1)Nc1ccc(/C=C2\CCn3c2nc2cc(Cl)ccc2c3=O)cc1` returned an inhibition in assay [2] of 49%. Further, the IC50 in assay [6] is 49 nM; in assay [7], 1700 nM.
Turning to `O=C(CCN1CCCCC1)Nc1ccc(/C=C2\CCCn3c2nc2cc(Cl)ccc2c3=O)cc1`, the inhibition in assay [2] turned out to be 52.9%. In addition, the figures for the half-inhibitory concentration (IC50) in assay [6] and in assay [7] were 31 nM and 5990 nM, respectively.
The compound `O=C(CCN1CCCC1)Nc1ccc(/C=C2\CCCn3c2nc2cc(Cl)ccc2c3=O)cc1` came in with an inhibition in assay [2] of 53.5%. Moreover, the IC50 in assay [6] was above 1000 nM; in assay [7], 6450 nM.
Regarding `O=C(NCCN1CCCC1)c1ccc(/C=C2\CCn3c2nc2cc(Cl)ccc2c3=O)cc1`, in assay [2], the inhibition stood at 57.4%. Further, the IC50 in assay [6] turned out to be 45 nM; in assay [7] it was 11100 nM.
For `O=C(CCN1CCCCC1)Nc1ccc(/C=C2\CCn3c2nc2cc(Cl)ccc2c3=O)cc1` the same measures were 49.8%, 23 nM and 2880 nM.
On to `O=C(NCCN1CCCC1)c1ccc(/C=C2\CCCn3c2nc2cc(Cl)ccc2c3=O)cc1`, for which, in assay [2], the inhibition was 53.6%. Moreover, the IC50 in assay [6] was found to be 1510 nM; in assay [7], 6750 nM.
For `O=C(CC[n+]1ccccc1)Nc1ccc(/C=C2\CCCn3c2nc2cc(Cl)ccc2c3=O)cc1` the same measures were 33%, 820 nM and 3380 nM.
For `O=C(NCCCN1CCCC1)c1ccc(/C=C2\CCn3c2nc2cc(Cl)ccc2c3=O)cc1` the same measures were 36.2%, 1440 nM and 610 nM.
Consider `CN(C)CCCNC(=O)c1ccc(/C=C2\CCn3c2nc2cc(Cl)ccc2c3=O)cc1`, for which the inhibition in assay [2] turned out to be 56.5%. Further, the half-maximal inhibitory concentration (IC50) turned out to be 1420 nM in assay [6] and 5180 nM in assay [7].
The like results for `CN(C)CCCNC(=O)c1ccc(/C=C2\CCCn3c2nc2cc(Cl)ccc2c3=O)cc1` were, in that order, 49.8%, 2050 nM and 6640 nM.
The compound `CN(C)CCNC(=O)c1ccc(/C=C2\CCn3c2nc2cc(Cl)ccc2c3=O)cc1` yielded an inhibition in assay [2] of 36.8%. For the same compound, the IC50 is 160 nM in assay [6] and above 20000 nM in assay [7].
`COc1cc(/C=C/C(=O)CC(=O)/C=C/c2ccc(O)c(OC)c2)ccc1O`: in assay [2], the inhibition amounted to 48.8%.
Take `CCN(CC)CCC(=O)Nc1ccc(/C=C2\CCCn3c2nc2cc(Cl)ccc2c3=O)cc1`: the inhibition in assay [2] came out at 54.8%. Further, the IC50 is above 1000 nM in assay [6] and 2340 nM in assay [7].
For `CN(C)CCNC(=O)c1ccc(/C=C2\CCCn3c2nc2cc(Cl)ccc2c3=O)cc1` the same measures were 54.5%, 360 nM and above 40000 nM.
